{"source": "patent US11246961B2", "about": "“Engineered scaffolds for vascularized tissue repair” (The Regents of the University of California, priority 2016, dated 2022)", "key": {"[1]": {"molecular_target": "T1, integrin αIIbβ3 (Homo sapiens, UniProt P05106+P08514)", "T1 construct": "expressed in transfected cells; host or cells: K562 myeloid leukemia cells (αIIbβ3-K562), provided by Dr. Jennifer Cochran (Stanford University)", "experiment": "flow cytometry ligand-cell binding, αIIbβ3-K562 cells", "details": "K562 cells highly expressing αIIbβ3", "procedure": "(§1) FIG. 10 presents flow cytometry data from an assay of binding affinity of LXW7 and GRGD (SEQ ID NO: 1) to different cell types. Tests included EPCs/ECs from different sources, including HECFCs (A), HCAECs (B), HMVECs (C), and THP-1 monocytes (D), Platelets (E), as well as K562 cells engineered to highly express αvβ3 (αvβ3-K562, F), and αIIbβ3 (αIIbβ3-K562, G). Cells were incubated with the LXW7-bio, GRGD-bio (SEQ ID NO: 1), or D-Biotin peptide and subsequently incubated with streptavidin-phycoerythrin. Flow cytometry analysis was performed to determine the binding affinity of the ligands. Samples treated with D-biotin were used as negative controls.\n(§2) Human coronary artery endothelial cells (HCAECs) were purchased from ATCC. Human cardiac microvascular endothelial cells (HMVECs) were purchased from Lonza. THP-1 monocytes were obtained from Dr. Pamela Lein (University of California, Davis). […]\n(§3) LXW7-bio (1 μM) was incubated with 3×10^5 HECFCs, HCAECs, HMVECs, αvβ3-K562 and αIIbβ3-K562 cells and THP-1 monocytes and 1×10^8 platelets in binding buffer (HEPES containing 10% FBS) on ice for 30 minutes. […] Samples were analyzed on a BD Fortessa LSR Cell Analyzer and further data analysis and gating were performed using FlowJo software (Treestar, Inc.)."}, "[2]": {"test_system": "platelets", "experiment": "flow cytometry ligand-cell binding, platelets", "details": "biotinylated ligand 1 μM", "procedure": "as §1\n(§4) LXW7-bio (1 μM) was incubated with 3×10^5 HECFCs, HCAECs, HMVECs, αvβ3-K562 and αIIbβ3-K562 cells and THP-1 monocytes and 1×10^8 platelets in binding buffer (HEPES containing 10% FBS) on ice for 30 minutes. The samples were washed three times with DPBS containing 1% FBS and incubated with 2 μg/ml of streptavidin-phycoerythrin on ice for 30 minutes and then washed with DPBS. Samples were analyzed on a BD Fortessa LSR Cell Analyzer and further data analysis and gating were performed using FlowJo software (Treestar, Inc.)."}, "[3]": {"test_system": "HCAECs", "experiment": "attachment assay on ligand treated culture surfaces, HCAECs", "type": "cell-based, human", "details": "avidin + biotinylated ligand 2 μM; 10 minutes", "description": "Ligands LXW7, LXY30, and LLP2A were synthesized as in U.S. Pat. No. 9,073,974. Biotinylated LXW7 (LXW7-bio) and biotinylated GRGD (GRGD-bio) (SEQ ID NO: 1) were synthesized using established solid phase peptide synthesis protocols (Xiao et al. (2010) Mol Cancer Therapeutics 9:2714). Peptide-bio was designed to have biotin attached to the side chain of Lys, with two hydrophilic linkers between peptide and Lys (biotin). To modify culture surface with ligands, target culture wells in a 24-well plate were coated with 500 μL of 20 μg/mL Avidin (Thermo Fisher Scientific), and incubated for 1 hour at 37° C. Avidin coated wells were rinsed three times with DPBS and were treated with 500 μL molar equivalents (2 μM) of D-biotin (Thermo Fisher Scientific), LXW7-bio, or GRGD-bio (SEQ ID NO: 1). After 1 hour, the wells were washed three times with DPBS and blocked with 1% bovine serum albumin (BSA; Thermo Fisher Scientific) for 1 hour. After the wells were rinsed three times with DPBS, for cell attachment assay, 5×10^4 HCAECs and THP-1 monocytes suspended in the respective maintenance medium were added to the wells and incubated for 10 minutes or 16 hours at 37° C., 5% CO2, respectively. After each time point the wells were washed three times with DPBS, and the adhered cells were fixed in 10% formalin (Azer Scientific) for 20 minutes. For platelets attachment assay, the PRP was centrifuged, and the platelet pellet was resuspended in 1% BSA with 2 mM CaCl2 and 1 mM MgCl2 to achieve a final concentration of 1×10^8 platelets/mL, added to the wells at a density of 5×10^7 platelets/cm^2, and incubated for 16 hours at 37° C., 5% CO2. The wells were washed three times with DPBS, and the adhered cells were fixed in 10% formalin for 20 min. The HCAECs wells were washed with DPBS again and blocked for 1 hour with 1% BSA. An additional wash was performed, and the plate was incubated overnight with mouse anti-PECAM-1 antibody (1:100; Abcam) in 1% BSA at 4° C. […] Five images were randomly taken from each sample and quantification of images was performed using the Image J software (NIH)."}, "[4]": {"test_system": "THP-1 monocytes", "experiment": "attachment assay on ligand treated culture surfaces, THP-1 monocytes", "type": "cell-based", "details": "16 hours", "description": "(§5) Ligands LXW7, LXY30, and LLP2A were synthesized as in U.S. Pat. No. 9,073,974. Biotinylated LXW7 (LXW7-bio) and biotinylated GRGD (GRGD-bio) (SEQ ID NO: 1) were synthesized using established solid phase peptide synthesis protocols (Xiao et al. (2010) Mol Cancer Therapeutics 9:2714). Peptide-bio was designed to have biotin attached to the side chain of Lys, with two hydrophilic linkers between peptide and Lys (biotin). To modify culture surface with ligands, target culture wells in a 24-well plate were coated with 500 μL of 20 μg/mL Avidin (Thermo Fisher Scientific), and incubated for 1 hour at 37° C. Avidin coated wells were rinsed three times with DPBS and were treated with 500 μL molar equivalents (2 μM) of D-biotin (Thermo Fisher Scientific), LXW7-bio, or GRGD-bio (SEQ ID NO: 1). After 1 hour, the wells were washed three times with DPBS and blocked with 1% bovine serum albumin (BSA; Thermo Fisher Scientific) for 1 hour. After the wells were rinsed three times with DPBS, for cell attachment assay, 5×10^4 HCAECs and THP-1 monocytes suspended in the respective maintenance medium were added to the wells and incubated for 10 minutes or 16 hours at 37° C., 5% CO2, respectively. […] Five images were randomly taken from each sample and quantification of images was performed using the Image J software (NIH)."}, "[5]": {"test_system": "THP-1 monocytes", "experiment": "flow cytometry ligand-cell binding, THP-1 monocytes", "details": "biotinylated ligand 1 μM", "procedure": "as §1, §4"}, "[6]": {"molecular_target": "T2, integrin αvβ3 (Homo sapiens, UniProt P05106+P06756)", "T2 construct": "expressed in transfected cells; host or cells: K562 myeloid leukemia cells (αvβ3-K562), provided by Dr. Yoshikazu Takada", "T2 sequence (P06756 31-889 limits assumed)": "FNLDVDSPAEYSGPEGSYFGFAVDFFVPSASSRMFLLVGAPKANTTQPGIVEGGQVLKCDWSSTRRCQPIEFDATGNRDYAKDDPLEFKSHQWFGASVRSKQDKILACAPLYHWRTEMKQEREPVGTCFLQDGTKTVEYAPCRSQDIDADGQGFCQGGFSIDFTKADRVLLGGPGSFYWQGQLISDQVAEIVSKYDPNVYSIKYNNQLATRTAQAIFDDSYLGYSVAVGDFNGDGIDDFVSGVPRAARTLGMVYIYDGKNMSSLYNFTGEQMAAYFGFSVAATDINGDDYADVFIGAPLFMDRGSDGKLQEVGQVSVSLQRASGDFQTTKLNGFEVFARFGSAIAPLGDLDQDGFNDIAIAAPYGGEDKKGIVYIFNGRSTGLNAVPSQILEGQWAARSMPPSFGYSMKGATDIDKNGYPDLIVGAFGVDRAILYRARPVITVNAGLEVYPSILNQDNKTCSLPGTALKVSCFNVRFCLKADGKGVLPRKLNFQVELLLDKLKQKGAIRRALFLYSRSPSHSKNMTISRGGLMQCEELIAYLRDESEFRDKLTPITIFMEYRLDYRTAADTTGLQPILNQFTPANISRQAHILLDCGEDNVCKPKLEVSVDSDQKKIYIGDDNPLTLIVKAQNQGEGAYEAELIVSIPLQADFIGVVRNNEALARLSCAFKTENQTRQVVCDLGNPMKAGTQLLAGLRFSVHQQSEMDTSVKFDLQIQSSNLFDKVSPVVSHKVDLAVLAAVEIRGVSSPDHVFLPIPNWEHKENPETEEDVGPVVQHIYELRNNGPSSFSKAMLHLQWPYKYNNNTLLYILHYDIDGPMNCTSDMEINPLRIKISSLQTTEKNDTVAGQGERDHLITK", "T2 sequence (P06756 891-1048 partner limits assumed)": "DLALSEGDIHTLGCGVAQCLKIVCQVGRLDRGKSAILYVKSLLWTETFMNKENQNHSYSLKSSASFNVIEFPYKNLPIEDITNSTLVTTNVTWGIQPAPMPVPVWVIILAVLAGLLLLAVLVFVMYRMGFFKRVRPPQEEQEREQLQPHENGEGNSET", "T2 sequence (P05106 27-788)": "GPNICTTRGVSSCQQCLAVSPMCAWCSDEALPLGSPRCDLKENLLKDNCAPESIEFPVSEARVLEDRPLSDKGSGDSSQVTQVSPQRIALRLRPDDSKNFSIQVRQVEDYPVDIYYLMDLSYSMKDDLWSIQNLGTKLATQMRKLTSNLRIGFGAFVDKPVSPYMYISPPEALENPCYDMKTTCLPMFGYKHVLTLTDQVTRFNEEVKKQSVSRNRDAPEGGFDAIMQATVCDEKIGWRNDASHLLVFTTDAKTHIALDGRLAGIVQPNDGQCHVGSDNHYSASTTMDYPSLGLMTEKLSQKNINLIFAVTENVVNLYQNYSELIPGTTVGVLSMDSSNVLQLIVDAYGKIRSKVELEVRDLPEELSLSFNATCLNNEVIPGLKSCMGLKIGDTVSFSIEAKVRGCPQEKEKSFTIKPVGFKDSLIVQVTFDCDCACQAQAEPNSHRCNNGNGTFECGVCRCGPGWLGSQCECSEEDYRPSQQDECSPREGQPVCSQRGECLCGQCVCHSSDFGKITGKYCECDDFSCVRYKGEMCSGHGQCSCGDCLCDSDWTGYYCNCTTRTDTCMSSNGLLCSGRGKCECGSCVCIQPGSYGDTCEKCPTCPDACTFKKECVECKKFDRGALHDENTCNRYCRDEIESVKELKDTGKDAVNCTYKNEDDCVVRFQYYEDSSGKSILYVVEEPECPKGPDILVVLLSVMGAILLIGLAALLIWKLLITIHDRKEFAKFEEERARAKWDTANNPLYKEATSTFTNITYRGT", "experiment": "flow cytometry ligand-cell binding, αvβ3-K562 cells", "details": "K562 cells highly expressing integrin αvβ3", "procedure": "as §1, §2, §3"}, "[7]": {"test_system": "platelets", "experiment": "platelets attachment assay on ligand treated culture surfaces", "type": "cell-based", "details": "16 hours", "description": "as §5"}, "[8]": {"test_system": "HCAECs", "experiment": "on-bead whole cell binding assay, HCAECs", "type": "cell-based, human", "details": "2 hours incubation", "description": "Human coronary artery endothelial cells (HCAECs) were purchased from ATCC. Human cardiac microvascular endothelial cells (HMVECs) were purchased from Lonza. THP-1 monocytes were obtained from Dr. Pamela Lein (University of California, Davis). The myeloid leukemia K562 cells that have been transfected with human integrin αvβ3 gene (αvβ3-K562 cells) were provided by Dr. Yoshikazu Takada and the K562 cells transfected with human integrin αIIbβ3 gene (αIIb3-K562 cells) were provided Dr. Jennifer Cochran (Stanford University)\nHECFCs, HCAECs, HMVECs and THP-1 monocytes were cultured in their respective growth medium as described in Example 1. For cell bead-binding assay, 6×10^5 HECFCs, HCAECs, HMVECs or THP-1 monocytes in 2 mL of their respective culture medium were added to an ultra-low attachment 35-mm petri dish (Corning Incorporated) followed by resin beads (Lam et al. (1991) Nature 354:82). The dishes were incubated in a shaking incubator at 37° C., 5% CO2 for various time points at 40 rpm. For platelet bead-binding assay, the platelets isolated as described in Example 1 were added to an ultra-low attachment 35-mm petri dish and incubated with the resin beads in the shaking incubator as described for the cell-bead binding assy. Phase contrast images were taken at different time points using an Olympus IX81 microscope.\nThree integrin-targeting ligands—LXY30 (α3β1), LLP2A (α4β1) and LXW7 (αvβ3)—were tested for their binding activities to EPCs and ECs. […] LXY30 only bound to ECs, not to EPCs. LLP2A only bound to EPCs, not to ECs. LXW7 bound well to both EPCs and ECs."}, "[9]": {"test_system": "HECFCs", "experiment": "on-bead whole cell binding assay, HECFCs", "type": "cell-based, human", "details": "2 hours incubation", "description": "Endothelial colony forming cells (ECFCs), a subtype of EPCs also often referred to as outgrowth endothelial cells (OECs), were isolated from human umbilical cord blood as previously described (Williams et al. (2015) PloS One 10:e0123437; Ingram et al. (2004) Blood 104:2752). Human umbilical cord blood (10 U heparin/mL blood) was obtained from the UC Davis Umbilical Cord Blood Collection Program (UCBCP) and diluted 1:1 with Phosphate-buffered saline (PBS), without calcium and magnesium, pH 7.2 (Hyclone). Fifteen mL Ficoll-Paque PLUS (Amersham Biosciences) was laid at the bottom of 20 mL diluted blood and centrifuged at 2000 rpm for 30 minutes at room temperature. The hazy layer of mononuclear cells (MNCs) that seat at the interface between the Ficoll and serum was collected and dispensed into 50-mL conical tube containing 10 mL EBM-2 (Lonza) and centrifuged at 1500 rpm for 10 minutes at room temperature. The supernatant was carefully aspirated and the pellets were treated with red blood cell lysis buffer (eBioscience, Inc.) and then sorted by CD34 microbead magnetic sorting (Miltenyi Biotec GmbH) as per manufacturer's instructions. The CD34^+ cells were seeded on rat-tail collagen I (BD Biosciences Discovery) coated tissue culture plates and cultured in EGM-2 media (Lonza). After 24 h, non-adherent cells were removed and the media was changed daily to day 7 and every other day thereafter. ECFC-derived colonies appeared between day 4 and day 7 of culture with s typical endothelial cobblestone pattern. Individual colonies were isolated and expanded and allowed to grow to 80% to 90% confluency before first passage. ECFCs were used between P3 and P5 for all experiments.\nHECFCs, HCAECs, HMVECs and THP-1 monocytes were cultured in their respective growth medium as described in Example 1. For cell bead-binding assay, 6×10^5 HECFCs, HCAECs, HMVECs or THP-1 monocytes in 2 mL of their respective culture medium were added to an ultra-low attachment 35-mm petri dish (Corning Incorporated) followed by resin beads (Lam et al. (1991) Nature 354:82). […]"}}, "note": "Ends that are not written are not given here.", "data": [{"substance": "GRGD [reference compound]", "values": [{"measurement": "binding to αIIbβ3-K562 cells by flow cytometry", "setting": "[1]", "result": "very strong binding"}, {"measurement": "binding affinity with platelets by flow cytometry", "setting": "[2]", "result": "strong binding to platelets"}, {"measurement": "attachment of HCAECs on ligand treated surface", "setting": "[3]", "result": "bound to both LXW7 and GRGD"}, {"measurement": "THP-1 monocyte attachment on ligand treated surface", "setting": "[4]", "result": "did not support THP-1 monocyte attachment"}, {"measurement": "binding to THP-1 monocytes by flow cytometry", "setting": "[5]", "result": "did not bind to THP-1 monocytes"}, {"measurement": "binding affinity to αvβ3-K562 cells by flow cytometry", "setting": "[6]", "result": "bound well"}, {"measurement": "platelet adhesion on ligand treated surface", "setting": "[7]", "result": "significantly higher number of platelets to attach"}]}, {"substance": "LXY30: integrin-targeting ligand (α3β1), synthesized as in U.S. Pat. No. 9,073,974 (CDGFGPNCR; not fully specified; also: cyclised, D-residues and non-natural residues, places not given here) [reference compound]", "values": [{"measurement": "binding of HCAECs to ligand-displaying resin beads", "setting": "[8]", "result": "bound only to HCAECs"}, {"measurement": "binding of HECFCs to ligand-displaying resin beads", "setting": "[9]", "result": "not to HECFCs or to THP-1 monocytes"}]}]}
